Test results from patent publication US20220257541A1, “Lacosamide for the Treatment of ADD/ADHD” (priority 2019, published 2022).

Experiments:
[1] = tested on: patient suffering from ADHD; experiment: Case Study 2: lacosamide mono-therapy in a person with ADHD; type: in vivo, human; settings: mono-therapy for several weeks
Protocol: We conducted a second case study to validate earlier results of Case Study 1. The patient was a person suffering from ADHD (with no comorbidity such as epilepsy or bipolar disorder). The patient was treated with a lacosamide mono-therapy for several weeks based on the conventional treatment regime for lacosamide (for the treatment of epilepsy and/or bipolar disorder) for subjects weighting 50 kg or more.

[2] = tested on: children and adolescents with ADHD syndrome; experiment: Case Study 3: 'PASA' clinical questionnaire (Thinking, Mood, Sleep, Alterity); type: in vivo, human
Protocol: This study describes a series of cases of 12 children and adolescents (aged between 7 and 17 year old) treated with lacosamide. The patients were from 3 different orphanages and under the general supervision of a tutor.
We administrated doses adjusted to age and weight of each patient, in line with the therapeutic doses described herein. Specifically, lacosamide was administered to the patients following the approved treatment regimen for lacosamide (Vimpat®) in epileptic children from 4 years of age as per Table 1 above. The patients were at constant supervision of the tutor and other personnel of the orphanages.
After being selected by the tutors, children were evaluated during a clinical consultation carried out in their own institution. Through this consultation, we verified the clinical condition of each child or adolescent, their records and anamnesis, if any. We also filled out the Clinical story forms. At the same time, we performed the first ‘PASA’ Evaluation. The ‘PASA’ Test is a clinical questionnaire that was developed by the inventor of the present application (see FIG. 1 for questionnaire questions). It includes examination of Thinking (“P” for “Pensamiento”), Mood (“A” for “Animo”), Sleep (“S” for “Sueno”) and Alterity (“A” for “Alteridad”).
‘PASA’ Evaluation was repeated every 60 days after initiating the medication. The four editions of this questionnaire were compared and analysed, drawing a close-up portrait of the clinical evolution of these cases.
The overall trend is very favourable in all cases. Patients' symptoms improved in all categories. In this study, the patients were evaluated before treatment with lacosamide (evaluation 1) and every 2 months in the course of the treatment.

[3] = tested on: children and adolescents with ADHD syndrome; experiment: Case Study 3: Wisconsin Card Sorting Test (WCST) Flexibility; type: in vivo, human
Protocol: (§1) These tests offered an objective element that contributed to the establishment of the diagnosis.
(§2) Neuropsychological evaluation was repeated after six months on medication, at the end of the study. These evaluations were guided by trained neuropsychologists. Four different evaluations were conducted: Continuous Performance Test (CPT)1, STROOP-P test, Wisconsin Card sorting Test and the Non Verbal Intelligence Test.
(§3) The patients were assessed using the Wisconsin Card Sorting Test (WCST), which is used to measure higher-level cognitive processes, such as attention, perseverance, abstract thinking, and set shifting. It is particularly used in clinical fields to measure perseverative behaviours that refer to an individual's insistence on wrong behaviour.

[4] = tested on: children and adolescents with ADHD syndrome; experiment: Case Study 3: Wisconsin Card Sorting Test (WCST) Reasoning; type: in vivo, human; settings: second evaluation
Protocol: as §1, §2, §3

[5] = tested on: children and adolescents with ADHD syndrome; experiment: Case Study 3: STROOP-P test; type: in vivo, human
Protocol: as §1, §2
The patients were assessed using the STROOP-P test, which is used to assess the ability to inhibit cognitive interference that occurs when the processing of a specific stimulus feature impedes the simultaneous processing of a second stimulus attribute, well-known as the Stroop Effect.

[6] = tested on: children and adolescents with ADHD syndrome; experiment: Case Study 3: Tutors evaluation pre to post treatment (DSM-V questionnaire); type: in vivo, human
Protocol: The Tutors Pre-Post Evaluation (self-administrated) was performed at the end of the study. This assessment required the person responsible for the patient's everyday life and care to evaluate the progression through the period of the study, including intellectual and behavioural changes.
The tutors have evaluated the patients using the DSM-V questionnaire, which is typically used as a standard to classify mental disorders by mental health professionals in the United States.

[7] = tested on: children and adolescents with ADHD syndrome; experiment: Case Study 3: neuropsychological results analysis (executive function, attention); type: in vivo, human; settings: after six months on medication
Protocol: as §2
We measured pedagogical values and characteristics of the executive function (Reasoning, Cognitive Flexibility, Attentional function, Intellectual Quotient, impulse inhibition, Perseveration resistance) throughout the course of the treatment with lacosamide.

[8] = tested on: children and adolescents with ADHD syndrome; experiment: Case Study 3: adverse reactions or side effects; type: in vivo, human; settings: all 12 patients, 6 months
Text: To formalise the control of the treatment, a tool was designed, allowing to record all administrated doses to participants on a daily basis, including any occurrence or increase of adverse reactions or side effects.

[9] = tested on: voltage-gated calcium channels (L-, N-, P/Q, T-type channels); settings: cited from earlier work
GABA transaminase = GABA transaminase (Homo sapiens, UniProt P80404); settings: cited from earlier work
[10] = after treatment, ~75% at the beginning

Sequence of GABA transaminase (P80404 29-500, species assumed): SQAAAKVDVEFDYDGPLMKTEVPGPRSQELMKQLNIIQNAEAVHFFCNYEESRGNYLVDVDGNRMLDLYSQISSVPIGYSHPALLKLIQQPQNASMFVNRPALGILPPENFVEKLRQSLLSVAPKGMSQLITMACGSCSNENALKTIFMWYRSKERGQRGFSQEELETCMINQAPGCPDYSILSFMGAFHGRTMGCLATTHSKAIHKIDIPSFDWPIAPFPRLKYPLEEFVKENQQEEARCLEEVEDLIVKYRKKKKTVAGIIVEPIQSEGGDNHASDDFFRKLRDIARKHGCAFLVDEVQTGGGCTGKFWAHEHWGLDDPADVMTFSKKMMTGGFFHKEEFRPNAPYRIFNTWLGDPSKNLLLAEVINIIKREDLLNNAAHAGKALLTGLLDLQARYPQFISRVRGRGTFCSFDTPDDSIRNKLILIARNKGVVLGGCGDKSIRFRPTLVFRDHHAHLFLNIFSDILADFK

COC[C@@H](NC(C)=O)C(=O)NCc1ccccc1 [lacosamide, (2R)-2-(acetylamino)-N-benzyl-3-methoxypropanamide]
ADHD symptomatology [1]: slowly regressed | cognitive functionality [1]: significant improvement | Mood and Sleep symptoms in most patients ([2]; 12 patients, 6 months): complete or nearly complete alleviation of the symptoms | all tested 'PASA' categories (Sleep Activity, Thoughts, Mood) ([2]; 12 patients, 6 months): positive impact | patients with depressive unjustified feelings ([2]; after six months of treatment, from 25%): 0% | patients with irritability ([2]; after treatment, from 33.3%): 16.7% | patients with cenesthesia [2, 10]: 8.3% | patients with hyper emotion [2, 10]: 25% | patients with hypomania [2, 10]: 16.7% | patients with lethargy [2, 10]: 8.3% | patients with mood change [2, 10]: 0% | patients with tiredness [2, 10]: 8.3% | Trend of Thought: Disordered ([2]; end of study (6 months), 67% of 12 patients before treatment): completely disappeared | Trend of Thought: Overabundant ([2]; end of study (6 months), 83% of 12 patients before treatment): completely disappeared | distressing thoughts ([2]; end of study, 17% of patients at the beginning): completely eliminated | patients with difficulties with falling asleep ([2]; end of study, from 75%): 0% | patients with sleep interruption ([2]; end of study, from 83%): 8.3% | patients with sudden off-sense disconnections (spacing out) ([2]; end of study, initially 50%): 33% | patients with dysphasia (inability of sustaining attention or understanding a long phrase) ([2]; end of study, initially 83%): 42% | patients with second thoughts disturbing concentration ([2]; end of study, initially 83%): 42% | patients with cenesthesic presences (sleep) ([2]; end of the trial period, from 75%): 8.3% | general state after waking up, sleeping without interruptions and ease of sleep ([2]; four evaluations over 6 months): improvement | realistic dreams ([2]; four evaluations over 6 months): not significantly affected | patients with blocking thoughts ([2]; in the course of treatment, 50% at the beginning): 25% | Hypercritical thinking ([2]; over the course of the study): small improvement | Tachypsychia ([2]; over the course of the study): small improvement | cognitive flexibility ([3]; after six months on medication): improving | patients with Average and High Average scores, WCST Flexibility ([3]; second evaluation, 25% in the first evaluation): 50% | patients in the lowest two categories (Mild and Severe Deterioration), WCST Flexibility ([3]; second evaluation, 41.7% in the first evaluation): 16.6% | patients in Severe Deterioration category, WCST Reasoning ([4]; 50% in the first evaluation): 25% | patients in the 3 highest categories, WCST Reasoning ([4]; from 41.7%): 58.3% | ability to inhibit cognitive interference ([5]; measured in both cerebral hemispheres): positive but to a limited extent | patients with Average result, STROOP-P ([5]; second test, 8.3% in the first evaluation): 25% | patients with Severe Deterioration, STROOP-P ([5]; second test, 25% initially): 8.3% | behaviour, tutors' DSM-V questionnaire [6]: significantly improved across all tested elements | Visual Attention, Perseveration Resistance and Impulse Inhibition [7]: did not show the expected improvement | indicator Attentional Difficulty [7]: improvement | variables of distraction and impulsivity [7]: no impact | side effects [8]: without substantial side effects | inhibition of voltage-gated calcium channels (L-, N-, P/Q, T-type) [9]: not to inhibit | inhibition of GABA transaminase (GABA transaminase): does not inhibit
